# Data as given in patent US20250084061A1, “SULFONYL FUNCTIONAL COMPOUND, METHODS AND USES THEREOF” (Hubei Biopesticide Engineering Research Centre, priority 2023, published 2025).
# Read-outs that look alike come from different tables or passages of the source.
# Experiments:
# Heliothis armigera = experiment: Insecticidal activity, artificial feed surface coating method; format: in vivo; details: Helicoverpa armigera, read-out: Insecticidal activity (mortality rate grade) Heliothis armigera
# Procedure: (§1) The insecticidal activity of sulfonyl functional compounds in the above embodiments were tested for agricultural biological functions, and the targets of insecticidal activity were Heliothis armigera, Plutella xylostella and Aphiscraccivora.
# (§2) Using Heliothis armigera and Plutella xylostella as target, the insecticidal activities of sulfonyl functional compounds were tested by conventional artificial feed surface coating method. 300 microliters of artificial feed and 20 microliters of test solution were added to each well of the 24-well cell culture plate. The test solution was used in different concentrations and repeated twice (Rep1 and Rep2). The concentrations of the test solution were 500 mg/L, 250 mg/L and 125 mg/L, respectively.
# (§3) The insecticidal activity of sulfonyl functional compounds against Aphiscraccivora was tested by the method of dipping. Mother liquors were prepared by the sulfonyl functional compounds provided in the above embodiments dissolved in ethanol, respectively. 500 mg/L, 250 mg/L or 125 mg/L test solution could be prepared by diluting the different mother liquors with a liquor that contained 0.1 mL/L of emulgator (Tween-80). Every test solution was tested twice (Rep1 and Rep2). A blank control was set up, and the activity results were compared with the blank control. The mortality rate of 0˜30%, 30˜50%, 50-70%, 70˜90%, or 90˜100% could be orderly set as 0, 3, 5, 7, or 9.
# Plutella xylostella = experiment: as above; format: in vivo; details: Plutella xylostella, read-out: Insecticidal activity (mortality rate grade) Plutella xylostella
# Procedure: as §1, §2, §3
# Aphiscraccivora = experiment: Insecticidal activity, dipping method; format: in vivo
# Procedure: as §1, §3
# [1] = test system: Verticillium dahliae.kieb.; experiment: Bactericidal (fungicidal) activity by microdilution; format: cell-based
# Fusarium culmorum = experiment: as above; format: cell-based
# [2] = test system: Fusarium oxysporum f. sp. Niveum; experiment: as above; format: cell-based
# Thanatephorus cucumeris = experiment: as above; format: cell-based
# Septoria nodorum Berk. = experiment: as above; format: cell-based
# Botrytis cinerea = experiment: as above; format: cell-based
# Leptosphaeria biglobosa = experiment: as above; format: cell-based
# Alternaria kikuchiana = experiment: as above; format: cell-based
# [3] = test system: Corynespora leaf spot of tomato; experiment: as above; format: cell-based
# Rhizoctonia solani = experiment: as above; format: cell-based
# [4] = test system: Colletotrichum gloeobosporioids; experiment: as above; format: cell-based
# Pythium aphanidermatum = experiment: as above; format: cell-based
# Magnaporthe oryzae = format: cell-based
smiles,measurement,setting,value
COC(=O)Nc1nc2ccccc2n1CCCS(=O)(=O)O [III-1],mortality at 125 µg/mL,Heliothis armigera; 125 mg/L test solution,0 to 30%
same,mortality at 250 µg/mL,Heliothis armigera; 250 mg/L test solution,0 to 30%
same,mortality at 500 µg/mL,Heliothis armigera; 500 mg/L test solution,0 to 30%
same,mortality at 125 µg/mL,Plutella xylostella; 125 mg/L test solution,0 to 30%
same,mortality at 250 µg/mL,Plutella xylostella; 250 mg/L test solution,0 to 30%
same,mortality at 500 µg/mL,Plutella xylostella; 500 mg/L test solution,0 to 30%
same,Insecticidal activity (mortality rate grade) Aphiscraccivora,Aphiscraccivora; 125 mg/L test solution,0 (mortality rate of 0˜30%)
same,Insecticidal activity (mortality rate grade) Aphiscraccivora,Aphiscraccivora; 250 mg/L test solution,0 (mortality rate of 0˜30%)
same,Insecticidal activity (mortality rate grade) Aphiscraccivora,Aphiscraccivora; 500 mg/L test solution,0 (mortality rate of 0˜30%)
same,Fungicidal activity (antibacterial rate grade) Verticillium dahliae. kieb.,[1]; 12.5 mg/L,9 (The antibacterial rate of 90˜100% could be set as 9 if the target has totally no growth)
same,Fungicidal activity (antibacterial rate grade) Verticillium dahliae. kieb.,[1]; 25 mg/L,9 (The antibacterial rate of 90˜100% could be set as 9 if the target has totally no growth)
same,Fungicidal activity (antibacterial rate grade) Verticillium dahliae. kieb.,[1]; 50 mg/L,9 (The antibacterial rate of 90˜100% could be set as 9 if the target has totally no growth)
same,Fungicidal activity (antibacterial rate grade) Verticillium dahliae. kieb.,[1]; 100 mg/L,9 (The antibacterial rate of 90˜100% could be set as 9 if the target has totally no growth)
same,Fungicidal activity (antibacterial rate grade) Fusarium culmorum,Fusarium culmorum; 12.5 mg/L,9 (The antibacterial rate of 90˜100% could be set as 9 if the target has totally no growth)
same,Fungicidal activity (antibacterial rate grade) Fusarium culmorum,Fusarium culmorum; 25 mg/L,9 (The antibacterial rate of 90˜100% could be set as 9 if the target has totally no growth)
same,Fungicidal activity (antibacterial rate grade) Fusarium culmorum,Fusarium culmorum; 50 mg/L,9 (The antibacterial rate of 90˜100% could be set as 9 if the target has totally no growth)
same,Fungicidal activity (antibacterial rate grade) Fusarium culmorum,Fusarium culmorum; 100 mg/L,9 (The antibacterial rate of 90˜100% could be set as 9 if the target has totally no growth)
same,Fungicidal activity (antibacterial rate grade) Fusarium oxysporum f. sp. Niveum,[2]; 12.5 mg/L,9 (The antibacterial rate of 90˜100% could be set as 9 if the target has totally no growth)
same,Fungicidal activity (antibacterial rate grade) Fusarium oxysporum f. sp. Niveum,[2]; 25 mg/L,9 (The antibacterial rate of 90˜100% could be set as 9 if the target has totally no growth)
same,Fungicidal activity (antibacterial rate grade) Fusarium oxysporum f. sp. Niveum,[2]; 50 mg/L,9 (The antibacterial rate of 90˜100% could be set as 9 if the target has totally no growth)
same,Fungicidal activity (antibacterial rate grade) Fusarium oxysporum f. sp. Niveum,[2]; 100 mg/L,9 (The antibacterial rate of 90˜100% could be set as 9 if the target has totally no growth)
same,Fungicidal activity (antibacterial rate grade) Thanatephorus cucumeris,Thanatephorus cucumeris; 12.5 mg/L,9 (The antibacterial rate of 90˜100% could be set as 9 if the target has totally no growth)
same,Fungicidal activity (antibacterial rate grade) Thanatephorus cucumeris,Thanatephorus cucumeris; 25 mg/L,9 (The antibacterial rate of 90˜100% could be set as 9 if the target has totally no growth)
same,Fungicidal activity (antibacterial rate grade) Thanatephorus cucumeris,Thanatephorus cucumeris; 50 mg/L,9 (The antibacterial rate of 90˜100% could be set as 9 if the target has totally no growth)
same,Fungicidal activity (antibacterial rate grade) Thanatephorus cucumeris,Thanatephorus cucumeris; 100 mg/L,9 (The antibacterial rate of 90˜100% could be set as 9 if the target has totally no growth)
same,Fungicidal activity (antibacterial rate grade) Septoria nodorum Berk.,Septoria nodorum Berk.; 12.5 mg/L,9 (The antibacterial rate of 90˜100% could be set as 9 if the target has totally no growth)
same,Fungicidal activity (antibacterial rate grade) Septoria nodorum Berk.,Septoria nodorum Berk.; 25 mg/L,9 (The antibacterial rate of 90˜100% could be set as 9 if the target has totally no growth)
same,Fungicidal activity (antibacterial rate grade) Septoria nodorum Berk.,Septoria nodorum Berk.; 50 mg/L,9 (The antibacterial rate of 90˜100% could be set as 9 if the target has totally no growth)
same,Fungicidal activity (antibacterial rate grade) Septoria nodorum Berk.,Septoria nodorum Berk.; 100 mg/L,9 (The antibacterial rate of 90˜100% could be set as 9 if the target has totally no growth)
same,Fungicidal activity (antibacterial rate grade) Botrytis cinerea,Botrytis cinerea; 12.5 mg/L,3 (The antibacterial rate of 0˜30% could be set as 3 if the growth of the target is normal and consistent with that of the blank control)
same,Fungicidal activity (antibacterial rate grade) Botrytis cinerea,Botrytis cinerea; 25 mg/L,3 (The antibacterial rate of 0˜30% could be set as 3 if the growth of the target is normal and consistent with that of the blank control)
same,Fungicidal activity (antibacterial rate grade) Botrytis cinerea,Botrytis cinerea; 50 mg/L,3 (The antibacterial rate of 0˜30% could be set as 3 if the growth of the target is normal and consistent with that of the blank control)
same,Fungicidal activity (antibacterial rate grade) Botrytis cinerea,Botrytis cinerea; 100 mg/L,3 (The antibacterial rate of 0˜30% could be set as 3 if the growth of the target is normal and consistent with that of the blank control)
same,Fungicidal activity (antibacterial rate grade) Leptosphaeria biglobosa,Leptosphaeria biglobosa; 12.5 mg/L,9 (The antibacterial rate of 90˜100% could be set as 9 if the target has totally no growth)
same,Fungicidal activity (antibacterial rate grade) Leptosphaeria biglobosa,Leptosphaeria biglobosa; 25 mg/L,9 (The antibacterial rate of 90˜100% could be set as 9 if the target has totally no growth)
same,Fungicidal activity (antibacterial rate grade) Leptosphaeria biglobosa,Leptosphaeria biglobosa; 50 mg/L,9 (The antibacterial rate of 90˜100% could be set as 9 if the target has totally no growth)
same,Fungicidal activity (antibacterial rate grade) Leptosphaeria biglobosa,Leptosphaeria biglobosa; 100 mg/L,9 (The antibacterial rate of 90˜100% could be set as 9 if the target has totally no growth)
same,Fungicidal activity (antibacterial rate grade) Alternaria kikuchiana,Alternaria kikuchiana; 12.5 mg/L,3 (The antibacterial rate of 0˜30% could be set as 3 if the growth of the target is normal and consistent with that of the blank control)
same,Fungicidal activity (antibacterial rate grade) Alternaria kikuchiana,Alternaria kikuchiana; 25 mg/L,3 (The antibacterial rate of 0˜30% could be set as 3 if the growth of the target is normal and consistent with that of the blank control)
same,Fungicidal activity (antibacterial rate grade) Alternaria kikuchiana,Alternaria kikuchiana; 50 mg/L,3 (The antibacterial rate of 0˜30% could be set as 3 if the growth of the target is normal and consistent with that of the blank control)
same,Fungicidal activity (antibacterial rate grade) Alternaria kikuchiana,Alternaria kikuchiana; 100 mg/L,3 (The antibacterial rate of 0˜30% could be set as 3 if the growth of the target is normal and consistent with that of the blank control)
same,Fungicidal activity (antibacterial rate grade) Corynespora leaf spot of tomato,[3]; 12.5 mg/L,3 (The antibacterial rate of 0˜30% could be set as 3 if the growth of the target is normal and consistent with that of the blank control)
same,Fungicidal activity (antibacterial rate grade) Corynespora leaf spot of tomato,[3]; 25 mg/L,3 (The antibacterial rate of 0˜30% could be set as 3 if the growth of the target is normal and consistent with that of the blank control)
same,Fungicidal activity (antibacterial rate grade) Corynespora leaf spot of tomato,[3]; 50 mg/L,7 (The antibacterial rate of 70˜90% could be set as 7 if the target has small amounts of growth)
same,Fungicidal activity (antibacterial rate grade) Corynespora leaf spot of tomato,[3]; 100 mg/L,7 (The antibacterial rate of 70˜90% could be set as 7 if the target has small amounts of growth)
same,Fungicidal activity (antibacterial rate grade) Rhizoctonia solani,Rhizoctonia solani; 12.5 mg/L,3 (The antibacterial rate of 0˜30% could be set as 3 if the growth of the target is normal and consistent with that of the blank control)
same,Fungicidal activity (antibacterial rate grade) Rhizoctonia solani,Rhizoctonia solani; 25 mg/L,3 (The antibacterial rate of 0˜30% could be set as 3 if the growth of the target is normal and consistent with that of the blank control)
same,Fungicidal activity (antibacterial rate grade) Rhizoctonia solani,Rhizoctonia solani; 50 mg/L,3 (The antibacterial rate of 0˜30% could be set as 3 if the growth of the target is normal and consistent with that of the blank control)
same,Fungicidal activity (antibacterial rate grade) Rhizoctonia solani,Rhizoctonia solani; 100 mg/L,3 (The antibacterial rate of 0˜30% could be set as 3 if the growth of the target is normal and consistent with that of the blank control)
same,Fungicidal activity (antibacterial rate grade) Colletotrichum gloeobosporioids,[4]; 12.5 mg/L,9 (The antibacterial rate of 90˜100% could be set as 9 if the target has totally no growth)
same,Fungicidal activity (antibacterial rate grade) Colletotrichum gloeobosporioids,[4]; 25 mg/L,9 (The antibacterial rate of 90˜100% could be set as 9 if the target has totally no growth)
same,Fungicidal activity (antibacterial rate grade) Colletotrichum gloeobosporioids,[4]; 50 mg/L,9 (The antibacterial rate of 90˜100% could be set as 9 if the target has totally no growth)
same,Fungicidal activity (antibacterial rate grade) Colletotrichum gloeobosporioids,[4]; 100 mg/L,9 (The antibacterial rate of 90˜100% could be set as 9 if the target has totally no growth)
same,Fungicidal activity (antibacterial rate grade) Pythium aphanidematum,Pythium aphanidermatum; 12.5 mg/L,3 (The antibacterial rate of 0˜30% could be set as 3 if the growth of the target is normal and consistent with that of the blank control)
same,Fungicidal activity (antibacterial rate grade) Pythium aphanidematum,Pythium aphanidermatum; 25 mg/L,3 (The antibacterial rate of 0˜30% could be set as 3 if the growth of the target is normal and consistent with that of the blank control)
same,Fungicidal activity (antibacterial rate grade) Pythium aphanidematum,Pythium aphanidermatum; 50 mg/L,3 (The antibacterial rate of 0˜30% could be set as 3 if the growth of the target is normal and consistent with that of the blank control)
same,Fungicidal activity (antibacterial rate grade) Pythium aphanidematum,Pythium aphanidermatum; 100 mg/L,3 (The antibacterial rate of 0˜30% could be set as 3 if the growth of the target is normal and consistent with that of the blank control)
same,Fungicidal activity (antibacterial rate grade) Magnaporthe oryzae,Magnaporthe oryzae; 12.5 mg/L,9 (The antibacterial rate of 90˜100% could be set as 9 if the target has totally no growth)
same,Fungicidal activity (antibacterial rate grade) Magnaporthe oryzae,Magnaporthe oryzae; 25 mg/L,9 (The antibacterial rate of 90˜100% could be set as 9 if the target has totally no growth)
same,Fungicidal activity (antibacterial rate grade) Magnaporthe oryzae,Magnaporthe oryzae; 50 mg/L,9 (The antibacterial rate of 90˜100% could be set as 9 if the target has totally no growth)
same,Fungicidal activity (antibacterial rate grade) Magnaporthe oryzae,Magnaporthe oryzae; 100 mg/L,9 (The antibacterial rate of 90˜100% could be set as 9 if the target has totally no growth)
